target: T1, human CB2R (Homo sapiens, UniProt P34972); assay: CB2R mediated modulation of cAMP synthesis; format: cell-based; conditions: not given
T1 construct: host or cells: CHO cells
Method: B. CB2R Mediated Modulation of cAMP Synthesis:
CHO cells expressing human CB2R (Euroscreen) were plated at a density of 5000 cells per well in 384 well plates and incubated overnight at 37° C. After removing the media, the cells were treated with test compounds diluted in stimulation buffer containing 1 mM IBMX, 0.25% BSA and 10 uM Forskolin. The assay was incubated for 30 minutes at 37° C. Cells were lysed and the cAMP concentration was measured using DiscoverX-XS cAMP kit, following the manufacturer's protocol. In this setting, agonists will decrease forskolin induced production of cAMP while inverse agonists will further increase forskolin induced production of cAMP. EC50 of agonists were calculated as follows. The maximal amount of cAMP produced by forskolin compared to the level of cAMP inhibited by 1 uM CP55940 is defined as 100%. […] Data was analyzed using a four-parameter logistic model. (Model 205 of XLfit 4.0).

T1 sequence (P34972 whole entry): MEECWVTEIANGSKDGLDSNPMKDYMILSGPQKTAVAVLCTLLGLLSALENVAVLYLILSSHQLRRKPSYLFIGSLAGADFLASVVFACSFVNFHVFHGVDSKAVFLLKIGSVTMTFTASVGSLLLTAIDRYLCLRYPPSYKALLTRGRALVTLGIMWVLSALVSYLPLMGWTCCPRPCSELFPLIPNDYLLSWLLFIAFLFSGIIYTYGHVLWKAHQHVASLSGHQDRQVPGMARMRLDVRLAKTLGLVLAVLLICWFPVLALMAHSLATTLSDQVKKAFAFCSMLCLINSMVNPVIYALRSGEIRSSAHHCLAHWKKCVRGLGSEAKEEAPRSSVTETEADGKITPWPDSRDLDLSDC

Structure (SMILES)	EC50 [nM]
CC(C)(C)c1cc(NC(=O)N2CCCN(C(=O)CC3CCCC3)CC2)no1 [Compound 140, 4-(2-Cyclopentyl-acetyl)-[1,4]diazepane-1-carboxylic acid (5-tert-butyl-isoxazol-3-yl)-amide]	12
CC(C)c1ccc(NC(=O)N2CCCN(C(=O)CC(C)(C)C)CC2)cc1 [Compound 60, 4-(3,3-Dimethyl-butyryl)-[1,4]diazepane-1-carboxylic acid (4-isopropyl-phenyl)-amide]	78
CC(C)(C)c1cc(NC(=O)N2CCCN(C(=O)c3ccc(C(F)(F)F)cc3)CC2)no1 [Compound 154, 4-(4-Trifluoromethyl-benzoyl)-[1,4]diazepane-1-carboxylic acid (5-tert-butyl-isoxazol-3-yl)-amide]	1.5

same assay, conditions: 0.5 h; CHO cells expressing human CB2R; cAMP inhibited by 1 uM CP55940 defined as 100%; read-out: Agonist Efficacy (%)

Emax [%]	Structure (SMILES)
107	CC(C)(C)c1cc(NC(=O)N2CCCN(C(=O)N3CCSCC3)CC2)no1 [Compound 203, 4-(Thiomorpholine-4-carbonyl)-[1,4]diazepane-1-carboxylic acid (5-tert-butyl-isoxazol-3-yl)-amide]
96	CC(C)(C)c1ccc(NC(=O)N2CCCN(C(=O)CCC3CCCCC3)CC2)cc1 [Compound 108, 4-(3-Cyclohexyl-propionyl)-[1,4]diazepane-1-carboxylic acid (4-tert-butyl-phenyl)-amide]
97	N#Cc1ccc(C(=O)N2CCCN(C(=O)Nc3ccc4ccccc4c3)CC2)cc1 [Compound 88, 4-(4-Cyano-benzoyl)-[1,4]diazepane-1-carboxylic acid naphthalen-2-ylamide]

same assay, conditions: CHO, 0.5 h, read-out: Agonist Efficacy (%)

Structure (SMILES)	Emax [%]
CC(C)(C)c1cc(NC(=O)N2CCCN(C(=O)CC3CCCC3)CC2)no1 [Compound 140, 4-(2-Cyclopentyl-acetyl)-[1,4]diazepane-1-carboxylic acid (5-tert-butyl-isoxazol-3-yl)-amide]	103
CC(C)c1ccc(NC(=O)N2CCCN(C(=O)CC(C)(C)C)CC2)cc1 [Compound 60, 4-(3,3-Dimethyl-butyryl)-[1,4]diazepane-1-carboxylic acid (4-isopropyl-phenyl)-amide]	71
CC(C)(C)c1cc(NC(=O)N2CCCN(C(=O)c3ccc(C(F)(F)F)cc3)CC2)no1 [Compound 154, 4-(4-Trifluoromethyl-benzoyl)-[1,4]diazepane-1-carboxylic acid (5-tert-butyl-isoxazol-3-yl)-amide]	103

same assay, conditions: found through the use of the described assays (CB2 agonists); qualitative statement

Structure (SMILES)	agonistic activity
CC(C)(C)c1cc(NC(=O)N2CCCN(C(=O)NC3CCCCC3)CC2)no1	agonistic activity
CC(C)(C)c1cc(NC(=O)N2CCCN(C(=O)C3CCS(=O)(=O)CC3)CC2)no1 [4-(1,1-Dioxo-hexahydro-1λ^6-thiopyran-4-carbonyl)-[1,4]diazepane-1-carboxylic acid (5-tert-butyl-isoxazol-3-yl)-amide]	agonistic activity
CC(C)(C)c1cc(NC(=O)N2CCCN(C(=O)N3CCN(S(C)(=O)=O)CC3)CC2)no1 [4-(4-Methanesulfonyl-piperazine-1-carbonyl)-[1,4]diazepane-1-carboxylic acid (5-tert-butyl-isoxazol-3-yl)-amide]	agonistic activity
CC(C)(C)c1ccc(NC(=O)N2CCCN(C(=O)CC3CCOCC3)CC2)cc1 [4-(2-Tetrahydro-pyran-4-yl-acetyl)-[1,4]diazepane-1-carboxylic acid (4-tert-butyl-phenyl)-amide]	agonistic activity
CC(C)(C)C(=O)N1CCCN(C(=O)Nc2ccc3ccccc3c2)CC1 [4-(2,2-Dimethyl-propionyl)-[1,4]diazepane-1-carboxylic acid naphthalen-2-ylamide]	agonistic activity
CC(C)(C)c1ccc(NC(=O)N2CCCN(C(=O)CN3CCSCC3)CC2)cc1 [4-(2-Thiomorpholin-4-yl-acetyl)-[1,4]diazepane-1-carboxylic acid (4-tert-butyl-phenyl)-amide]	agonistic activity
CC(C)(C)c1cc(NC(=O)N2CCCN(C(=O)C3CCC(=O)CC3)CC2)no1 [4-(4-Oxo-cyclohexanecarbonyl)-[1,4]diazepane-1-carboxylic acid (5-tert-butyl-isoxazol-3-yl)-amide]	agonistic activity
O=C(CC1CCOCC1)N1CCCN(C(=O)Nc2ccc3ccccc3c2)CC1 [4-(2-Tetrahydro-pyran-4-yl-acetyl)-[1,4]diazepane-1-carboxylic acid (2-naphthyl)-amide]	agonistic activity
CCCCCc1ccc(NC(=O)N2CCCN(C(=O)CC3CCOCC3)CC2)cc1 [4-(2-Tetrahydro-pyran-4-yl-acetyl)-[1,4]diazepane-1-carboxylic acid (4-pentyl-phenyl)-amide]	agonistic activity
CC(C)(C)c1cc(NC(=O)N2CCCN(C(=O)N3CCC(S(C)(=O)=O)CC3)CC2)no1 [4-(4-Methanesulfonyl-piperidine-1-carbonyl)-[1,4]diazepane-1-carboxylic acid (5-tert-butyl-isoxazol-3-yl)-amide]	agonistic activity
CCC(C)c1ccc(NC(=O)N2CCCN(C(=O)CC3CCCC3)CC2)cc1 (centres unmarked) [4-(2-Cyclopentyl-acetyl)-[1,4]diazepane-1-carboxylic acid (4-sec-butyl-phenyl)-amide]	agonistic activity
O=C(CC1CCOCC1)N1CCCN(C(=O)Nc2ccc(C(F)(F)F)cc2)CC1 [4-(2-Tetrahydro-pyran-4-yl-acetyl)-[1,4]diazepane-1-carboxylic acid (4-trifluoromethyl-phenyl)-amide]	agonistic activity
O=C(CC1CCOCC1)N1CCCN(C(=O)Nc2ccc3c(c2)OC(F)(F)O3)CC1 [4-(2-Tetrahydro-pyran-4-yl-acetyl)-[1,4]diazepane-1-carboxylic acid (2,2-difluoro-benzo[1,3]dioxol-5-yl)-amide]	agonistic activity
CC(C)(C)c1cc(NC(=O)N2CCCN(C(=O)N3CC[S+]([O-])CC3)CC2)no1 [4-(1-Oxo-1λ^4-thiomorpholine-4-carbonyl)-[1,4]diazepane-1-carboxylic acid (5-tert-butyl-isoxazol-3-yl)-amide]	agonistic activity

Further lines, results first:

agonistic activity	Structure (SMILES)
agonistic activity	O=C(Nc1nc2c(s1)CCCC2)N1CCCN(C(=O)c2ccc(Cl)cc2)CC1 [4-(4-Chloro-benzoyl)-[1,4]diazepane-1-carboxylic acid (4,5,6,7-tetrahydro-benzothiazol-2-yl)-amide]
agonistic activity	Cc1ccc(C(=O)N2CCCN(C(=O)Nc3ccc(C(C)(C)C)cc3)CC2)cc1 [4-(4-Methyl-benzoyl)-[1,4]diazepane-1-carboxylic acid (4-tert-butyl-phenyl)-amide]
agonistic activity	CC(C)(C)c1cc(NC(=O)N2CCCN(C(=O)C3CCC(N)CC3)CC2)no1 (centres unmarked) [4-(4-Amino-cyclohexanecarbonyl)-[1,4]diazepane-1-carboxylic acid (5-tert-butyl-isoxazol-3-yl)-amide]
agonistic activity	Cc1cccc(NC(=O)N2CCCN(C(=O)CCC3CCCC3)CC2)c1 [4-(3-Cyclopentyl-propionyl)-[1,4]diazepane-1-carboxylic acid m-tolylamide]
agonistic activity	Cc1sc(NC(=O)N2CCCN(C(=O)C3CCOCC3)CC2)nc1C(C)(C)C [4-(Tetrahydro-pyran-4-carbonyl)-[1,4]diazepane-1-carboxylic acid (4-tert-butyl-5-methyl-thiazol-2-yl)-amide]
agonistic activity	CC1(O)CCC(C(=O)N2CCCN(C(=O)Nc3cc(C(C)(C)C)on3)CC2)CC1 (centres unmarked) [4-(4-Hydroxy-4-methyl-cyclohexanecarbonyl)-[1,4]diazepane-1-carboxylic acid (5-tert-butyl-isoxazol-3-yl)-amide]
agonistic activity	CC(C)(C)c1cc(NC(=O)N2CCCN(C(=O)C3CCCC3)CC2)no1 [4-Cyclopentanecarbonyl-[1,4]diazepane-1-carboxylic acid (5-tert-butyl-isoxazol-3-yl)-amide]
agonistic activity	CC(=O)N1CCN(C(=O)N2CCCN(C(=O)Nc3cc(C(C)(C)C)on3)CC2)CC1 [4-(4-Acetyl-piperazine-1-carbonyl)-[1,4]diazepane-1-carboxylic acid (5-tert-butyl-isoxazol-3-yl)-amide]
agonistic activity	CC(C)(C)c1cc(NC(=O)N2CCCN(C(=O)C3CCCCC3)CC2)no1 [4-Cyclohexanecarbonyl-[1,4]diazepane-1-carboxylic acid (5-tert-butyl-isoxazol-3-yl)-amide]
agonistic activity	CC(C)c1ccc(NC(=O)N2CCCN(C(=O)c3ccncc3)CC2)cc1 [4-(Pyridine-4-carbonyl)-[1,4]diazepane-1-carboxylic acid (4-isopropyl-phenyl)-amide]
agonistic activity	Cc1nc(NC(=O)N2CCCN(C(=O)C3CCOCC3)CC2)sc1C(C)(C)C [4-(Tetrahydro-pyran-4-carbonyl)-[1,4]diazepane-1-carboxylic acid (5-tert-butyl-4-methyl-thiazol-2-yl)-amide]
agonistic activity	CC(C)(C)CC(=O)N1CCCN(C(=O)Nc2ccc(C(C)(C)C)cc2)CC1 [4-(3,3-Dimethyl-butyryl)-[1,4]diazepane-1-carboxylic acid (4-tert-butyl-phenyl)-amide]
agonistic activity	CCCCc1ccc(NC(=O)N2CCCN(C(=O)CCC(C)C)CC2)cc1 [4-(4-Methyl-pentanoyl)-[1,4]diazepane-1-carboxylic acid (4-butyl-phenyl)-amide]
agonistic activity	O=C(Nc1ccc2ccccc2c1)N1CCCN(C(=O)c2ccc(Cl)c(Cl)c2)CC1 [4-(3,4-Dichloro-benzoyl)-[1,4]diazepane-1-carboxylic acid naphthalen-2-ylamide]
agonistic activity	CC(C)(C)c1cnc(NC(=O)N2CCCN(C(=O)C3CCC(O)CC3)CC2)s1 (centres unmarked) [4-(4-Hydroxy-cyclohexanecarbonyl)-[1,4]diazepane-1-carboxylic acid (5-tert-butyl-thiazol-2-yl)-amide]

same assay, conditions: read-out: hCB2 cAMP EC50

EC50 [nM]	Structure (SMILES)
62	CC(C)(C)c1cc(NC(=O)N2CCCN(C(=O)N3CCSCC3)CC2)no1 [Compound 203, 4-(Thiomorpholine-4-carbonyl)-[1,4]diazepane-1-carboxylic acid (5-tert-butyl-isoxazol-3-yl)-amide]
21	CC(C)(C)c1ccc(NC(=O)N2CCCN(C(=O)CCC3CCCCC3)CC2)cc1 [Compound 108, 4-(3-Cyclohexyl-propionyl)-[1,4]diazepane-1-carboxylic acid (4-tert-butyl-phenyl)-amide]
36	N#Cc1ccc(C(=O)N2CCCN(C(=O)Nc3ccc4ccccc4c3)CC2)cc1 [Compound 88, 4-(4-Cyano-benzoyl)-[1,4]diazepane-1-carboxylic acid naphthalen-2-ylamide]
